# Measurements published in US20040198752A1, “Method for inhibiting retinoid skin damage” (priority 2001, published 2004).
# pIC50: −log10 of the molar value. Where two headings read alike, the source gives them in different places.
# Tests used:
# [1] = 0.1, 0.5 and 1 mg/kg/day; cited from earlier work
# [2] = system: organ-cultured human skin; experiment: RA-induced epidermal hyperplasia in human skin organ culture; assay type: cell-based
# Description: Immediately upon biopsy, the tissue was immersed in culture medium consisting of Keratinocyte Basal Medium (KBM) (Clonetics, Inc., Walkersville, Md.). KBM is a low-Ca^2+, serum-free modification of MCDB-153 medium optimized for high-density keratinocyte growth (Wille J, Jr., Pittelkow M R, Shipley G D, Scott R E. Integrated control of growth and differentiation of normal human prokeratinocytes cultured in serum-free medium: clonal analyses, growth kinetics, and cell cycle studies. J Cell Physiol 1984;121:31-44). It was supplemented with CaCl2 to bring the final Ca^2+ concentration to 1.4 mM. After transport to the laboratory on ice, the biopsies were incubated in a 96-well dish containing 200 μL of Ca^2+-supplemented KBM with or without additional treatments. Cultures were incubated at 37° C. in an atmosphere of 95% air and 5% CO2. Incubation was for 8 days, with change of medium containing the various treatments every 2 days. […] For the experiment shown in FIG. 4, human skin keratome biopsies were subjected to organ culture in the presence or absence of 3 μM RA followed by RNA isolation and Northern blotting as previously described (Stoll SW, Elder J T. Retinoid regulation of heparin-binding EGF-lke growth factor gene expression in human keratinocytes and skin. Exp Dermatol, 1998;7:391-397), except that the concentration of Ca^2+ was adjusted to 0.1 mM or 1.4 mM by the addition of CaCl2. cDNA insert probes for detection of HB-EGF and 36B4 were prepared and labeled by random priming, as previously described (Stoll and Elder, Supra., 1998).
# [3] = system: tyrosine kinases residing outside the c-erbB family; conditions: 1 μM; cited from earlier work
# [4] = 51Cr-release cytotoxicity assay; assay type: cell-based, human; conditions: human, human epidermal keratinocytes; KBM + Ca2+; read-out: Cytotoxicity (ID50)
# Method: (§1) A ^51Cr-release assay was used to measure cytotoxic effects of the irreversible c-erbB-RTK antagonist. For this assay, keratinocytes were initially plated at 2×10^4 cells per well of a 24-well dish in growth medium (KGM) and treated with 1 μCi per well of ^51Cr. After allowing cells to incorporate ^51Cr for one day, the non-incorporated isotope was removed and the cells washed twice in KBM. The cells were then incubated for 18 hours with or without treatments as indicated in Results. At the end of the incubation period, the percentage of Incorporated ^51Cr that was released into the culture medium was determined.
# [5] = system: human epidermal keratinocytes; experiment: 51Cr-release cytotoxicity assay; assay type: cell-based; conditions: for pIC50: read-out: Cytotoxicity (ID50)
# Method: as §1
# [6] = system: human epidermal keratinocytes; experiment: Proliferation assay, keratinocytes in monolayer culture; assay type: cell-based
# Method: (§2) Normal human epidermal keratinocytes were obtained from skin biopsies and maintained in monolayer culture using Keratinocyte Growth Medium (KGM) (Clonetics, Inc., Walkersville, Md.). KGM contains the same basal medium as KBM, but is further supplemented with a mixture of growth factors including 0.1 ng/mL EGF, 0.5 μg/mL insulin, and 2% bovine pituitary extract. In some experiments, the HaCaT line of immortalized human epidermal keratinocytes (Boukamp P, Petrussevska R T, Breitkreutz D, Hornung J, Markham A, Fusenig N E. Normal keratinization in a spontaneously immortalized aneuploid human keratinocyte cell line. J Cell Biol, 1988;106:761-771) was used in place of normal keratinocytes. We (J.V., S.W.S., and J.T.E., unpublished observations) and others (Chaturvedi V, Qin J Z, Denning M F, Choubey D, Diaz M O, Nickoloff B J. Apoptosis in proliferating, senescent, and immortalized keratinocytes. J Biol Chem, 1999;274:23358-23367) have observed that HaCaT cells grow well in KGM. Therefore, HaCaT cells and NHK were propagated in exactly the same manner. Fibroblasts obtained from human skin were grown in monolayer culture using Dulbecco's modified minimal essential medium supplemented with nonessential amino acids and 10% fetal bovine serum (DMEM-FBS). Both keratinocytes and fibroblasts were maintained at 37° C. in an atmosphere of 95% air and 5% CO2. Cells were sub-cultured by exposure to trypsin/EDTA and used at passage 2-3.
# For proliferation assays, cells were initially plated at 4×10^4 cells per well of a 24-well dish in growth medium (KGM for keratinocytes or DMEM-FBS for fibroblasts). After allowing cells to attach for 1 to 2 hours, the medium was removed and the cells washed twice in KBM (keratinocytes) or Ca^2+-supplemented KBM (fibroblasts). The cells were then incubated for 48 hours with or without additional reagents as indicated in Results. At the end of the incubation period, the cells were harvested by trypsinization and enumerated using an automated particle counter (Coulter Electronics, Hialeah, Fla.).
# [7] = system: HB-EGF mRNA; experiment: HB-EGF mRNA in human skin organ culture (Northern blotting); assay type: cell-based; conditions: 3 μM RA, 8 hours
# Description: Immediately upon biopsy, the tissue was immersed in culture medium consisting of Keratinocyte Basal Medium (KBM) (Clonetics, Inc., Walkersville, Md.). KBM is a low-Ca^2+, serum-free modification of MCDB-153 medium optimized for high-density keratinocyte growth (Wille J, Jr., Pittelkow M R, Shipley G D, Scott R E. Integrated control of growth and differentiation of normal human prokeratinocytes cultured in serum-free medium: clonal analyses, growth kinetics, and cell cycle studies. J Cell Physiol 1984;121:31-44). It was supplemented with CaCl2 to bring the final Ca^2+ concentration to 1.4 mM. After transport to the laboratory on ice, the biopsies were incubated in a 96-well dish containing 200 μL of Ca^2+-supplemented KBM with or without additional treatments. Cultures were incubated at 37° C. in an atmosphere of 95% air and 5% CO2. Incubation was for 8 days, with change of medium containing the various treatments every 2 days. […]
# [8] = system: human dermal fibroblasts; experiment: RA-induced survival of dermal fibroblasts in low-Ca2+ monolayer culture; assay type: cell-based; conditions: 3 μM RA, 48 hours, KBM 0.15 mM CaCl2
# Method: as §2, with “Cells were sub-cultured by exposure to trypsin/EDTA and used at passage 2-3.” left out
# [9] = examined at 1 μM, 5 μM and 10 μM
smiles,measurement,setting,value
"CC1=C(/C=C/C(C)=C/C=C/C(C)=C\C(=O)O)C(C)(C)CCC1 [Accutane, 13-cis-retinoic acid]",clearing of disease,[1],all dosages provided initial clearing of disease
"CNc1cc2c(Nc3cccc(Br)c3)ncnc2cn1 [PD 158780, N^4-(3-Bromo-phenyl)-N^6-methyl-pyrido[3,4-d]pyrimidine-4,6-diamine]",antiproliferative activity,[2]; [9],detected only at 5 and 10 μM
same,effects on RA-stimulated hyperplasia,[2]; [9],reversed the effects of RA
"C=CC(=O)Nc1cc2c(Nc3cccc(Br)c3)ncnc2cc1OCCCN1CCOCC1 [PD 169540, N-[4-(3-bromo-phenylamino)-7-(3-morpholin-4-yl-propoxy)-quinazolin-6-yl]-acrylamide]",reversal of RA-induced epidermal hyperplasia,"[2]; 0.5 μM and 0.1 μM inhibitor, 3 μM RA","also effective, albeit less so than 1 μM"
same,reversal of RA-induced epidermal hyperplasia,"[2]; 1 μM inhibitor, 3 μM RA",reversed the effects of 3 μM RA
same,RA-stimulated epidermal thickness by keratinocyte counts (keratinocytes/block),"[2]; RA + inhibitor, FIG. 2",reduction in hyperplasia
same,reversal of RA-induced epidermal hyperplasia,[2]; concentrations lower than 0.1 μM,no effect
same,effect on tyrosine kinases residing outside the c-erbB family,[3],without effect
same,IC50 at 18 h,[4],> 1000 nM
same,pIC50,[5]; +EGF,< 6.00
same,pIC50,[5]; +insulin/pituitary extract,< 6.00
same,cytotoxicity by 51Cr release,[5]; any of the concentrations tested,virtually no cytotoxicity
same,Inhibition of Growth (ID50),[6]; +EGF,6 nM
same,Inhibition of Growth (ID50),[6]; +insulin/pituitary extract,900 nM
same,Inhibition of Growth (ID50),[6]; KBM + Ca2+,8 nM
same,"relative potency, organ culture hyperplasia and monolayer proliferation",[6]; comparison of the two c-erbB-RTK antagonists,clearly the more potent compound in both assays
"CC1=C(/C=C/C(C)=C/C=C/C(C)=C/C(=O)O)C(C)(C)CCC1 [RA, all-trans retinoic acid, reference compound]",HB-EGF mRNA induction,[7]; 1.4 mM Ca2+,clearly dominant over the inhibitory effect of 1.4 mM Ca^2+
same,HB-EGF mRNA induction,[7]; low-Ca2+ (0.1 mM),strongly potentiated
same,number of Ki-67-positive cells,"[2]; 3 μM RA, 8 days",much larger number of Ki-67-positive cells than did the controls
same,epidermal thickness (number of epidermal keratinocytes),"[2]; 3 μM RA, 8 days, 1.4 mM Ca2+",The epidermis was thickened
same,preservation of epithelial viability,[2]; RA added to low-Ca2+ organ cultures,up to 12 days
same,fibroblast survival,[8],markedly and significantly promoted fibroblast survival
